Assay results from patent publication US6706257B1, “Sunless tanning products and processes” (Discovery Partners, LLC, priority 2001, dated 2004).

How the values were obtained:
skin = assay: Tanning effect of MSM additions to DHA formulas or accelerators; format: in vivo, human
From the text: Applicant has conducted experiments with a typical oil-in-water self tanning cream containing DHA as the self tanning agent with or without the inclusion of MSM. […] Applicant also conducted experiments with DHA containing self-tanning liquid mousse compositions, with and without MSM.

[1] = Solubility of MSM in water; format: physicochemical; settings: by weight

CS(C)(=O)=O [MSM, methylsulfonyl methane]
tanning effect (skin; 0.1% addition of MSM): ineffective
tanning effect (skin; addition of 5% MSM to DHA formulas, with or without soluble dyes): enhances tanning effect producing a more intense hue that lasts longer
solubility of MSM in water [1]: ~20%
